Assay results: US7138122B2, “Therapeutic systems” (Enzacta R & D Limited, priority 1997, dated 2006)

Columns and labels:
[1] = test system: human T98G gliobastoma cells; test: Cytotoxicity of CB 1954 on T98G glioblastoma cells with NQO2 co-substrates; conditions: no co-substrate
Description: Cells in exponential phase of growth were trypsinised, seeded in 96 well plates at a density of 5×10^4 cells per well (100 μl) and permitted to recover for 24 hours. Then 50 μl of medium was removed and replaced with 50 μl of fresh medium containing 200 μM NRH to give a final concentration of 100 μM. Serial dilutions of CB 1954 (8 of 3.66×) were performed in situ giving final concentrations of 1000–0.46 μM. Cells were then incubated with drug for 72 hours at 37° C. The plates were fixed and stained with sulforhodamine-B; the absorption at 590 nm read and results were expressed as percentage of control growth. The IC50 values were evaluated by interpolation.
The cells were treated as for V79 cells but were treated for 144 hr in presence of CB 1954.

E. coli nitroreductase = E. coli nitroreductase (Escherichia coli, UniProt P38489); conditions: with respect to CB 1954; NADH as co-substrate; cited from earlier work
Human DT-diaphorase = Human DT-diaphorase (Homo sapiens, UniProt P15559); conditions: with respect to CB 1954; NADH as co-substrate; cited from earlier work
Rat DT-diaphorase = molecular target: T1, Rat DT-diaphorase (Rattus norvegicus, UniProt P05982); conditions: with respect to CB 1954; NADH as co-substrate; cited from earlier work
T1 sequence (P05982 2-274 limits assumed): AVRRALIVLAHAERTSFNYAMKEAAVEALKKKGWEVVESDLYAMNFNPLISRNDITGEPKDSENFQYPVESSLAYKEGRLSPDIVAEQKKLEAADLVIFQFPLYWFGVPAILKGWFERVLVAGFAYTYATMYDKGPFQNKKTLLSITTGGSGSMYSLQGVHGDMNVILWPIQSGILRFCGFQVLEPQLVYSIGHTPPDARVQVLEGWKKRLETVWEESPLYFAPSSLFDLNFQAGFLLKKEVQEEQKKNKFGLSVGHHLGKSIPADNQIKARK

[2] = test system: NQO2 expressing V79 cells; test: Cytotoxicity of CB 1954 with NRH in NQO2-transfected V79 cells; assay type: cell-based, Chinese hamster; conditions: 100 μM NRH added, 72 hours
Description: Transfection quality H6 DNA was prepared using the QIAGEN endotoxin-free maxiprep kit. Chinese hamster lung embryo fibroblasts (V79) were transfected with the purified H6 using DOTAP liposomal reagent according to the manufacturer's instructions (Boehringer Mannheim). Two days after transfection puromycin-resistant clones were selected in DMEM/10% FCS containing 10 μg/ml puromycin (Sigma) and grown on to establish cell lines designated V79TM1, 5, 3, 7, 9, 11 and 13 respectively and maintained in selective medium.

[3] = test system: non-transfected V79 cells; test: Cytotoxicity of CB 1954 with NRH in non-transfected V79 cells; assay type: cell-based, Chinese hamster; conditions: 100 μM NRH added, 72 hours
NQO2 = molecular target: T2, NQO2 (Homo sapiens, UniProt P16083); test: Co-substrate activity with NQO2 for reduction of CB 1954 (HPLC); assay type: biochemical; parameters: restriction site were added to the 5′ and 3′-ends of the full-length NQO2 cDNA; made in house; host or cells: E. coli (expression vector pKK233-2, plasmid pKK-hNQO2)
T2 sequence (P16083 1-231): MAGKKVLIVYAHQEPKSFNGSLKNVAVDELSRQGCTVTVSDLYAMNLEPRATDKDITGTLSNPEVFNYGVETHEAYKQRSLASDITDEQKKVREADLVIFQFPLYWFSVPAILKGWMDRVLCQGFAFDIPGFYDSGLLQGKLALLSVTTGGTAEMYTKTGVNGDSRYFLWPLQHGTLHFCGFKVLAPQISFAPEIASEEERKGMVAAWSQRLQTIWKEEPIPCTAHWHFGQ
Description: The effect of various co-substrates on CB 1954 was determined as above but NADH. NADPH or NMNH was substituted for the NRH and CB 1954 was used at a fixed concentration of 100 μM. The enzyme concentration was 5 μg/ml. The reduction of CB 1954 was monitored by measuring both the decrease in its corresponding peak area on the HPLC trace and the increase in the area of the peak corresponding to the reduction product 5-(aziridin-1-yl)-4-hydroxylamino-2-nitrobenzamide. The relative rates of reduction were determined at 10% reduction of CB1954 from a graph plotting CB 1954 reduction against time. The time axis was normalised to the equivalent of 10 μg/ml of NQO2.
The activity of various potential co-substrates was determined by HPLC analysis in the presence of CB1954 and NQO2. To determine the kinetic parameters NQO2 (1 μg/ml) was incubated with NRH (5000 μM) and CB1954 at different concentrations (0.1 to 2 mM) in sodium phosphate buffer (10MM, pH 7) at 37° C. At various times, aliquots (10 μl) were injected onto a Partisphere SCX (250×4.5 mm) HPLC column (Whatman Ltd) and eluted isocratically (1.5 ml/min) with 50 mM aqueous sodium phosphate containing 1% methanol. The eluate was continuously monitored for absorption at 320 nm. […] The reduction of CB1954 was monitored by quantifying the increase in the area of the peak corresponding to the reduction product 5-(aziridin-1-yl)-4-hydroxylamino-2-nitrobenzamide. All the assays were initiated by addition of the enzyme and performed in duplicate. The kinetic parameters were calculated by plotting the initial rate of reduction at each concentration of CB1954 against that concentration and fitting the data to the Michaelis-Menton equation using a computer programme (Fig P). Values were confirmed by transforming the data and fitting it to various linear forms of the equation by regression analysis.
The effect of various co-substrates on CB1954 reduction was determined as above but the co-substrate was substituted for the NRH and C1954 was used at a fixed concentration of 100 μM. The enzyme concentration was 1 or 5 μg/ml. The reduction of CB1954 was monitored by measuring both the decrease in its corresponding peak area on the HPLC trace and the increase in the area of the peak corresponding to the reduction product 5-(aziridin-1-yl)-4-hydroxylamino-2-nitrobenzamide. The relative rates of reduction were determined at 10% reduction of CB1954 from a graph plotting CB1954 reduction against time. The time axis was normalised to the equivalent of 10 μg/ml of NQO2. The kinetic parameters of NQO2 for the various co-substrates was determined as for CB1954 except that the initial concentration of CB1954 was constant at 100 μm whilst that of the co-substrate was varied from 0 to 2 mM. The enzyme concentration was 0.5 μg/ml.

Sequence of Human DT-diaphorase (P15559 whole entry): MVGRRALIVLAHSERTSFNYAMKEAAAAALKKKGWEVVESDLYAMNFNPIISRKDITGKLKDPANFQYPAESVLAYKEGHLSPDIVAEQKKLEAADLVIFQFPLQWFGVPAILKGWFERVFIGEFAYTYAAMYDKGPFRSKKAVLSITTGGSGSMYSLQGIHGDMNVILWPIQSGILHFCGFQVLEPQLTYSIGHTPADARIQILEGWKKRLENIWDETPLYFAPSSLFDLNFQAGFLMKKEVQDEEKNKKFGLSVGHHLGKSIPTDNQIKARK
Sequence of E. coli nitroreductase (P38489 whole entry): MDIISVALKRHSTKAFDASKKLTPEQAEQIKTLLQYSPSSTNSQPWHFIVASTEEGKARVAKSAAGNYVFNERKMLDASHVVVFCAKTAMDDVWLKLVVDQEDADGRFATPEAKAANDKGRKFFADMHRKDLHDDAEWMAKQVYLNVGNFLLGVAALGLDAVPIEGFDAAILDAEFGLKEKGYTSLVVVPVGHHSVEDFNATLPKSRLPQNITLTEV

NC(=O)c1cc(N2CC2)c([N+](=O)[O-])cc1[N+](=O)[O-] [CB 1954, 5-(aziridin-1-yl)-2,4-dinitrobenzamide]
toxicity of CB1954 alone [1]: not toxic
kcat (E. coli nitroreductase): 6.0 s⁻¹
Km (Human DT-diaphorase): 1400 µM
kcat (Human DT-diaphorase): 0.0107 s⁻¹
Km (Rat DT-diaphorase): 826 µM
kcat (Rat DT-diaphorase): 0.0683 s⁻¹

NC(=O)C1=CN([C@@H]2O[C@H](CO)[C@@H](O)[C@H]2O)C=CC1 [NRH, dihydronicotinamide riboside]
increase of the cytotoxicity of CB 1954 ([2]; V79TM5 and 13 cell lines): greater than 100 fold
increase of the cytotoxicity of CB 1954 ([2]; V79TM13 cells): at least 100 fold
increase of the cytotoxicity of CB 1954 [3]: < 3 fold
RELATIVE RATE OF REDUCTION (NQO2; CB 1954 reduction by NQO2, co-substrate initial 500 μM, CB 1954 initial 100 μM): 70.0
Km (NQO2; of NQO2 for the co-substrate, CB1954 as electron acceptor (100 μM)): 28 ± 2 µM
kcat (NQO2; of NQO2 with the co-substrate, CB1954 as electron acceptor): 6 s⁻¹
